Measurements published in ChEMBL document CHEMBL5518189, “Design, synthesis and biological evaluation of 1,2,3-triazole benzothiazole derivatives as tubulin polymerization inhibitors with potent anti-esophageal cancer activities” (Eur J Med Chem, 2024).

Experiments:
HCT-116 = experiment: Antiproliferative activity against human HCT-116 cells assessed as inhibition of cell growth measured after 48 hrs by CCK8 method; format: functional, cell-based; settings: HCT-116, 48 h
KYSE-30 = experiment: Antiproliferative activity against human KYSE-30 cells assessed as inhibition of cell growth measured after 48 hrs by CCK8 method; format: functional, cell-based; settings: KYSE-30, 48 h
MGC-803 = experiment: Antiproliferative activity against human MGC-803 cells assessed as inhibition of cell growth measured after 48 hrs by CCK8 method; format: functional, cell-based; settings: MGC-803, 48 h
Tubulin [1] = experiment: Inhibition of tubulin polymerization (unknown origin); format: protein-complex assay, Homo sapiens
PC-3 = experiment: Antiproliferative activity against human PC-3 cells assessed as inhibition of cell growth measured after72 hrs by MTT assay; format: functional, cell-based
Tubulin [2] = experiment: Inhibition of tubulin polymerization (unknown origin) by spectrophotometer analysis; format: protein-complex assay, Homo sapiens
HeLa = experiment: Growth inhibition of human HeLa cells; format: functional

| SMILES | IC50 (HCT-116) [µM] | IC50 (KYSE-30) [µM] | IC50 (MGC-803) [µM] | IC50 (Tubulin [1]) [µM] | IC50 (PC-3) [µM] | IC50 (Tubulin [2]) [µM] | GI50 (HeLa) [µM] |
| --- | --- | --- | --- | --- | --- | --- | --- |
| COc1cc(CN(C(=O)Cn2cc(CSc3nc4ccccc4s3)nn2)c2cc(OC)c(OC)c(OC)c2)cc(OC)c1OC | > 80 | > 80 | > 80 |  |  |  |  |
| COc1ccc(CN(C(=O)Cn2cc(CSc3nc4ccc(Cl)cc4s3)nn2)c2cc(OC)c(OC)c(OC)c2)cc1O | 0.062 | 0.072 | 0.069 |  |  |  |  |
| COc1cc(N(Cc2ccc(C)cc2)C(=O)Cn2cc(CSc3nc4ccccc4s3)nn2)cc(OC)c1OC | 3.97 | 1.86 | 2.35 |  |  |  |  |
| COc1ccc2nc(-c3cccnc3-c3cc(OC)c(OC)c(OC)c3)sc2c1 |  |  |  | 1.67 |  |  |  |
| COc1ccc(CN(C(=O)Cn2cc(CSc3nc4ccccc4s3)nn2)c2ccccc2)cc1 | 63.7 | 62.2 | 52.5 |  |  |  |  |
| COc1cc(N(Cc2cccnc2)C(=O)Cn2cc(CSc3nc4ccccc4s3)nn2)cc(OC)c1OC | > 80 | > 80 | > 80 |  |  |  |  |
| COc1ccc(CN(C(=O)Cn2cc(CSc3nc4ccccc4s3)nn2)c2ccc(Br)cc2)cc1 | 60.3 | 35.5 | 53.3 |  |  |  |  |
| COc1ccc(CN(C(=O)Cn2cc(CSc3nc4ccccc4s3)nn2)c2ccc(F)cc2)cc1 | > 80 | 77.6 | 68.5 |  |  |  |  |
| COc1ccc(CN(C(=O)Cn2cc(CSc3nc4ccccc4s3)nn2)c2ccc(OC)cc2)cc1 | 34.2 | 28.3 | 14.5 |  |  |  |  |
| COc1ccc(CN(C(=O)Cn2cc(CSc3nc4ccc(Br)cc4s3)nn2)c2cc(OC)c(OC)c(OC)c2)cc1O | 0.064 | 0.049 | 0.054 |  |  |  |  |
| COc1cc(N(Cc2nc3ccccc3[nH]2)C(=O)Cn2cc(CSc3nc4ccccc4s3)nn2)cc(OC)c1OC | 68.7 | 56.8 | 40.3 |  |  |  |  |
| COc1ccc2nc(SCc3cn(CC(=O)N(Cc4ccc(OC)c(O)c4)c4cc(OC)c(OC)c(OC)c4)nn3)sc2c1 | 0.126 | 0.058 | 0.063 |  |  |  |  |
| COc1ccc(CN(C(=O)Cn2cc(CSc3nc4ccccc4s3)nn2)c2cc(OC)c(OC)c(OC)c2)cc1OC | 2.19 | 1.74 | 1.56 |  |  |  |  |
| COc1ccc(CN(C(=O)Cn2cc(CSc3nc4ccccc4s3)nn2)c2ccc(OC)c(OC)c2)cc1 | 52.4 | > 80 | 38.5 |  |  |  |  |
| COc1ccc(CN(C(=O)Cn2cc(CSc3nc4c(C)cccc4s3)nn2)c2cc(OC)c(OC)c(OC)c2)cc1O | 0.078 | 0.067 | 0.089 |  |  |  |  |
| COc1cc(N(Cc2ccc(F)cc2)C(=O)Cn2cc(CSc3nc4ccccc4s3)nn2)cc(OC)c1OC | > 80 | > 80 | > 80 |  |  |  |  |
| COc1cc(N(Cc2c(C)noc2C)C(=O)CSc2nc3ccccc3s2)cc(OC)c1OC |  |  |  |  | 2.04 |  |  |
| COc1cc(N(Cc2ccc(Br)cc2)C(=O)Cn2cc(CSc3nc4ccccc4s3)nn2)cc(OC)c1OC | 60.1 | > 80 | 74.3 |  |  |  |  |
| COc1ccc(CN(C(=O)Cn2cc(CSc3nc4ccccc4s3)nn2)c2cc(OC)c(OC)c(OC)c2)cc1F | 0.47 | 0.76 | 0.29 |  |  |  |  |
| COc1ccc(CN(C(=O)Cn2cc(CSc3nc4ccccc4s3)nn2)c2ccc(C)cc2)cc1 | > 80 | 63.1 | 46.5 |  |  |  |  |
| COc1cc(C(=O)c2nc3cc(Br)ccc3s2)cc(OC)c1OC |  |  |  |  |  | 13.1 |  |
| COc1ccc(CN(C(=O)Cn2cc(CSc3nc4ccccc4s3)nn2)c2cc(OC)c(OC)c(OC)c2)cc1 | 1.68 | 1.44 | 1.03 |  |  |  |  |
| COc1cc(N(Cc2ccc(Cl)cc2)C(=O)Cn2cc(CSc3nc4ccccc4s3)nn2)cc(OC)c1OC | > 80 | > 80 | > 80 |  |  |  |  |
| COc1ccc(CN(C(=O)Cn2cc(CSc3nc4ccccc4s3)nn2)c2cc(OC)c(OC)c(OC)c2)cc1N | 0.094 | 0.059 | 0.088 |  |  |  |  |
| COc1ccc(CN(C(=O)Cn2cc(CSc3nc4ccccc4s3)nn2)c2ccc(Cl)cc2)cc1 | 59.5 | > 80 | 62.1 |  |  |  |  |
| COc1cc(N(Cc2c(C)noc2C)C(=O)Cn2cc(CSc3nc4ccccc4s3)nn2)cc(OC)c1OC | > 80 | > 80 | > 80 |  |  |  |  |
| COc1ccc(CN(C(=O)Cn2cc(CSc3nc4ccccc4s3)nn2)c2cc(OC)c(OC)c(OC)c2)cc1[N+](=O)[O-] | 16.2 | 12.1 | 8.16 |  |  |  |  |
| COc1ccc2nc(-c3ccc(-n4cnnc4-c4cc(OC)c(OC)c(OC)c4)c(C)c3)sc2c1 |  |  |  | 1.91 |  |  | 0.04 |
| COc1ccc(CN(C(=O)Cn2cc(CSc3nc4ccccc4s3)nn2)c2cc(OC)c(OC)c(OC)c2)cc1Br | 1.33 | 1.14 | 0.82 |  |  |  |  |
| COc1cc2c(c(OC)c1OC)-c1ccc(OC)c(=O)cc1[C@@H](NC(C)=O)CC2 [COLCHICINE] |  | 0.048 | 0.046 |  |  |  |  |
